Structures can show the parent of a compound that is named as a salt.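 All cell lines were grown in 96-well plates and treated with compound for 48 hours. At the GI50, growth is halved.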 The source made the active and inactive calls. Rule as the data show it: active = GI50 up to about 1.1 µM and inactive = higher.
Experiments:
Assay in all cases: NCI tumour cell line growth inhibition, 48 h
T47D = tested on: T47D
PC-3 = tested on: PC-3
Malme-3M = tested on: Malme-3M
MDA-MB-435 = tested on: MDA-MB-435
MCF7 = tested on: MCF7
CAKI-1 = tested on: CAKI-1
UACC-62 = tested on: UACC-62
Hs-578T = tested on: Hs-578T
HCT-15 = tested on: HCT-15
IGROV-1 = tested on: IGROV-1
MDA-N = tested on: MDA-N
HCT-116 = tested on: HCT-116
U-251 = tested on: U-251
OVCAR-3 = tested on: OVCAR-3
COLO 205 = tested on: COLO 205
HOP-92 = tested on: HOP-92
OVCAR-5 = tested on: OVCAR-5
RXF 393 = tested on: RXF 393
MOLT-4 = tested on: MOLT-4
SR = tested on: SR

Structure (SMILES)	GI50 (T47D)	GI50 (PC-3)	GI50 (Malme-3M)	GI50 (MDA-MB-435)	GI50 (MCF7)	GI50 (CAKI-1)	GI50 (UACC-62)	GI50 (Hs-578T)	GI50 (HCT-15)	GI50 (IGROV-1)	GI50 (MDA-N)	GI50 (HCT-116)	GI50 (U-251)	GI50 (OVCAR-3)	GI50 (COLO 205)	GI50 (HOP-92)	GI50 (OVCAR-5)	GI50 (RXF 393)	GI50 (MOLT-4)	GI50 (SR)
N#Cc1c(NC(=O)CCC(=O)O)ccc2ccccc12	> 100 µM (inactive)	> 100 µM (inactive)	> 100 µM (inactive)	> 100 µM (inactive)	> 100 µM (inactive)	> 100 µM (inactive)	> 100 µM (inactive)	> 100 µM (inactive)	> 100 µM	> 100 µM (inactive)	> 100 µM (inactive)	> 100 µM (inactive)	> 100 µM (inactive)	> 100 µM (inactive)	> 100 µM (inactive)	> 100 µM (inactive)	> 100 µM (inactive)	> 100 µM (inactive)	–	–
Cc1n[nH]c(=O)n1/N=C/c1cccs1	> 100 µM (inactive)	> 100 µM (inactive)	> 100 µM (inactive)	> 100 µM (inactive)	> 100 µM (inactive)	> 100 µM (inactive)	> 100 µM (inactive)	36.5 µM (inactive)	> 100 µM	–	> 100 µM (inactive)	> 100 µM (inactive)	> 100 µM (inactive)	> 100 µM (inactive)	> 100 µM (inactive)	–	> 100 µM (inactive)	> 100 µM (inactive)	–	–
O=C(C=P(c1ccccc1)(c1ccccc1)c1ccccc1)c1ccc(-c2cccs2)cc1	2.33 µM (inactive)	4.12 µM (inactive)	4.46 µM (inactive)	3.08 µM (inactive)	3.41 µM (inactive)	4.91 µM (inactive)	1.64 µM (inactive)	18.5 µM (inactive)	6.61 µM	7.73 µM (inactive)	3.22 µM (inactive)	3.74 µM (inactive)	3.85 µM (inactive)	2.9 µM (inactive)	0.671 µM (active)	3.48 µM (inactive)	5 µM (inactive)	3.11 µM (inactive)	2.15 µM (inactive)	–
OC(Cc1cc(CC(O)(C(F)(F)F)C(F)(F)F)nc(CC(O)(C(F)(F)F)C(F)(F)F)c1)(C(F)(F)F)C(F)(F)F	0.755 µM (active)	0.323 µM (active)	2.59 µM (inactive)	2.39 µM (inactive)	0.826 µM (active)	0.321 µM (active)	0.337 µM (active)	1.03 µM (active)	0.767 µM	0.764 µM (active)	1.45 µM (inactive)	0.869 µM (active)	1 µM (active)	0.49 µM (active)	0.918 µM (active)	0.541 µM (active)	3.43 µM (inactive)	2.18 µM (inactive)	3.85 µM (inactive)	–
Cn1c(COC(=O)NC2CCCCC2)c(COC(=O)NC2CCCCC2)c2ccc3cc(Cl)c(Cl)cc3c21	5.37 µM (inactive)	15.3 µM (inactive)	6.43 µM (inactive)	17.6 µM (inactive)	4.03 µM (inactive)	2.62 µM (inactive)	11 µM (inactive)	3.66 µM (inactive)	12.2 µM	17 µM (inactive)	12.6 µM (inactive)	7.43 µM (inactive)	6 µM (inactive)	15.1 µM (inactive)	11.7 µM (inactive)	4.88 µM (inactive)	16 µM (inactive)	6.12 µM (inactive)	14.8 µM (inactive)	–
OC(c1ccc(F)cc1)(c1ccc(F)cc1)C1CC1	38 µM (inactive)	20 µM (inactive)	23.9 µM (inactive)	23 µM (inactive)	35.7 µM (inactive)	25.3 µM (inactive)	23.9 µM (inactive)	26.9 µM (inactive)	23 µM	28.9 µM (inactive)	19.4 µM (inactive)	26.8 µM (inactive)	24 µM (inactive)	32.5 µM (inactive)	16.2 µM (inactive)	33.8 µM (inactive)	37.3 µM (inactive)	26.9 µM (inactive)	21.5 µM (inactive)	–
CCCCCc1cc2cc3c(c(O)c2c(=O)[nH]1)C1(CC3)C(=O)c2c(O)c3c(c(O)c2C1=O)C(=O)C(OC)=CC3=O (stereo not drawn)	0.239 µM (active)	0.568 µM (active)	0.524 µM (active)	1.49 µM (inactive)	0.311 µM (active)	0.259 µM (active)	1.24 µM (inactive)	1.53 µM (inactive)	0.388 µM	1.28 µM (inactive)	1.3 µM (inactive)	0.433 µM (active)	0.601 µM (active)	0.44 µM (active)	0.206 µM (active)	0.263 µM (active)	2.98 µM (inactive)	0.877 µM (active)	0.56 µM (active)	–
CN(C)c1ccc(/C=C(\NC(=O)c2ccccc2)C(=O)NC(CCC(=O)O)C(=O)O)cc1 (stereo not drawn)	> 100 µM (inactive)	> 100 µM (inactive)	> 100 µM (inactive)	> 100 µM (inactive)	> 100 µM (inactive)	> 100 µM (inactive)	> 100 µM (inactive)	> 100 µM (inactive)	> 100 µM	> 100 µM (inactive)	> 100 µM (inactive)	> 100 µM (inactive)	> 100 µM (inactive)	> 100 µM (inactive)	> 100 µM (inactive)	> 100 µM (inactive)	> 100 µM (inactive)	> 100 µM (inactive)	> 100 µM (inactive)	–
[O-][n+]1c2cccc(O)c2[n+]([O-])c2cccc(O)c21	40.2 µM (inactive)	53.1 µM (inactive)	–	> 100 µM (inactive)	20.7 µM (inactive)	25.1 µM (inactive)	–	> 100 µM (inactive)	46.6 µM	6.53 µM (inactive)	> 100 µM (inactive)	21.4 µM (inactive)	43.3 µM (inactive)	29.2 µM (inactive)	52.8 µM (inactive)	22.7 µM (inactive)	> 100 µM (inactive)	60.4 µM (inactive)	3.99 µM (inactive)	–
C=CCOC(=O)CC[N+]1=CCC(c2ccccc2)(c2ccccc2)O1	> 100 µM (inactive)	> 100 µM (inactive)	–	> 100 µM (inactive)	> 100 µM (inactive)	> 100 µM (inactive)	> 100 µM (inactive)	> 100 µM (inactive)	> 100 µM	> 100 µM (inactive)	> 100 µM (inactive)	> 100 µM (inactive)	> 100 µM (inactive)	> 100 µM (inactive)	> 100 µM (inactive)	> 100 µM (inactive)	> 100 µM (inactive)	> 100 µM (inactive)	> 100 µM (inactive)	–
Cn1ccnc1CCc1ccc(F)cc1F	> 100 µM (inactive)	> 100 µM (inactive)	> 100 µM (inactive)	> 100 µM (inactive)	> 100 µM (inactive)	–	> 100 µM (inactive)	> 100 µM (inactive)	> 100 µM	> 100 µM (inactive)	> 100 µM (inactive)	–	> 100 µM (inactive)	> 100 µM (inactive)	> 100 µM (inactive)	–	> 100 µM (inactive)	> 100 µM (inactive)	> 100 µM (inactive)	> 100 µM (inactive)
Cc1cc(N(CCC#N)CCC#N)ccc1C(/N=N/c1ccc(Cl)cc1)=N\NC(=O)c1cc(Cl)ccc1O	31.6 µM (inactive)	35.2 µM (inactive)	62.7 µM (inactive)	> 100 µM (inactive)	29.4 µM (inactive)	> 100 µM (inactive)	43.3 µM (inactive)	19.5 µM (inactive)	39.4 µM	30.6 µM (inactive)	> 100 µM (inactive)	71.4 µM (inactive)	37.1 µM (inactive)	19.1 µM (inactive)	47.9 µM (inactive)	–	> 100 µM (inactive)	22.2 µM (inactive)	53.5 µM (inactive)	38.7 µM (inactive)
Cc1[nH]n(-c2nc3c(c(=O)[nH]2)CCC3)c(=O)c1CCO	> 100 µM (inactive)	> 100 µM (inactive)	> 100 µM (inactive)	> 100 µM (inactive)	> 100 µM (inactive)	> 100 µM (inactive)	> 100 µM (inactive)	> 100 µM (inactive)	> 100 µM	> 100 µM (inactive)	> 100 µM (inactive)	> 100 µM (inactive)	> 100 µM (inactive)	> 100 µM (inactive)	> 100 µM (inactive)	–	> 100 µM (inactive)	> 100 µM (inactive)	> 100 µM (inactive)	–
CC(C)C[C@H](NC(=O)[C@H](Cc1ccccc1)NC(=O)c1cnccn1)B(O)O [BORTEZOMIB]	< 0.01 µM (active)	< 0.01 µM (active)	< 0.01 µM (active)	< 0.01 µM (active)	< 0.01 µM (active)	< 0.01 µM (active)	< 0.01 µM (active)	–	< 0.01 µM	< 0.01 µM (active)	< 0.01 µM (active)	< 0.01 µM (active)	< 0.01 µM (active)	< 0.01 µM (active)	< 0.01 µM (active)	< 0.01 µM (active)	< 0.01 µM (active)	< 0.01 µM (active)	< 0.01 µM (active)	< 0.01 µM (active)
C=C1C[C@@H]2CC[C@@]34C[C@H]5O[C@H]6[C@@H](O3)[C@H]3O[C@H](CC[C@@H]3O[C@H]6[C@H]5O4)CC(=O)C[C@@H]3[C@@H](OC)[C@@H](C[C@H](O)CN)O[C@H]3C[C@H]3O[C@@H](CC[C@@H]1O2)C[C@@H](C)C3=C [ERIBULIN MESYLATE]	< 0.0001 µM (active)	0.00037 µM (active)	0.00366 µM (active)	5.96e-05 µM (active)	0.000383 µM (active)	0.0179 µM (active)	0.000711 µM (active)	0.0022 µM (active)	0.053 µM	0.00151 µM (active)	7.59e-05 µM (active)	0.00074 µM (active)	0.00134 µM (active)	9.59e-05 µM (active)	0.00031 µM (active)	0.00352 µM (active)	–	–	0.000791 µM (active)	–
